Experimental data taken from ChEMBL document CHEMBL4387701, “H2depda: An acyclic adjuvant potentiates meropenem activity in vitro against metallo-β-lactamase-producing enterobacterales” (Eur J Med Chem, 2019).
Values after ≈ are worked out from the molar mass of the structure shown. Active and inactive are the calls of the source. No cut-off for these calls is given here.

How the values were obtained:
[1] = test system: Proteus mirabilis; assay: Effect on growth of Proteus mirabilis isolate 19 after 24 hrs by broth microdilution method; type: organism-based
[2] = test system: Klebsiella pneumoniae; assay: Inhibition of IMP4 in Klebsiella pneumoniae isolate 12 assessed as potentiation of meropenem-induced antibacterial activity by measuring meropenem MIC after 24 hrs by broth microdilution method (reference value: 16 ug/ml)
[3] = test system: Escherichia coli; assay: Effect on growth of Escherichia coli isolate 1 after 24 hrs by broth microdilution assay; type: organism-based
[4] = test system: Escherichia coli; assay: Effect on growth of Escherichia coli isolate 11 after 24 hrs by broth microdilution method; type: organism-based
[5] = test system: Klebsiella pneumoniae; assay: Effect on growth of Klebsiella pneumoniae isolate 12 after 24 hrs by broth microdilution method; type: organism-based
[6] = test system: Escherichia coli; assay: Effect on growth of Escherichia coli isolate 18 after 24 hrs by broth microdilution method; type: organism-based
[7] = test system: Klebsiella pneumoniae; assay: Effect on growth of Klebsiella pneumoniae isolate 13 after 24 hrs by broth microdilution method; type: organism-based
[8] = test system: Escherichia coli; assay: Inhibition of IMP4 in Escherichia coli isolate 14 assessed as potentiation of meropenem-induced antibacterial activity by measuring meropenem MIC after 24 hrs by broth microdilution method (reference value: 16 ug/ml)
[9] = test system: Escherichia coli; assay: Effect on growth of Escherichia coli isolate 3 after 24 hrs by broth microdilution assay; type: organism-based
[10] = molecular target: T1, Metallo-beta-lactamase NDM-4 (Escherichia coli) (UniProt H6WZS9); assay: Inhibition of NDM4 in Escherichia coli isolate 3 assessed as potentiation of meropenem-induced antibacterial activity by measuring meropenem MIC after 24 hrs by broth microdilution assay (reference value: 1280 ug/ml)
T1 sequence (whole entry): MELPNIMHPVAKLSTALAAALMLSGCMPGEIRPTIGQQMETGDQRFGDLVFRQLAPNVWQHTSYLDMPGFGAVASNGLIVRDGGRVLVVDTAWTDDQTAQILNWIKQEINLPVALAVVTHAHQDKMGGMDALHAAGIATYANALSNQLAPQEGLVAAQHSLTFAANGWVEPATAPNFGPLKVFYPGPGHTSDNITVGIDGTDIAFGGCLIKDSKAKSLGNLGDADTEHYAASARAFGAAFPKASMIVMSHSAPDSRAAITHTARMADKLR

[11] = test system: Escherichia coli; assay: Effect on growth of Escherichia coli isolate 2 after 24 hrs by broth microdilution assay; type: organism-based
[12] = test system: Escherichia coli; assay: Inhibition of IMP4 in Escherichia coli isolate 18 assessed as potentiation of meropenem-induced antibacterial activity by measuring meropenem MIC after 24 hrs by broth microdilution method (reference value: 16 ug/ml)
[13] = test system: Enterobacter cloacae; assay: Effect on growth of Enterobacter cloacae isolate 16 after 24 hrs by broth microdilution method; type: organism-based
[14] = test system: Enterobacter cloacae; assay: Effect on growth of Enterobacter cloacae isolate 6 after 24 hrs by broth microdilution assay; type: organism-based
[15] = test system: Enterobacter cloacae; assay: Effect on growth of Enterobacter cloacae isolate 4 after 24 hrs by broth microdilution assay; type: organism-based
[16] = molecular target: T1, Metallo-beta-lactamase NDM-4 (Escherichia coli); assay: Inhibition of Escherichia coli NDM4 assessed as potentiation of meropenem-induced antibacterial activity by measuring reduction in bacterial growth at 64 ug/mL after 24 hrs by broth microdilution method relative to control
[17] = molecular target: T1, Metallo-beta-lactamase NDM-4 (Escherichia coli); assay: Inhibition of Escherichia coli NDM4 assessed as potentiation of meropenem-induced antibacterial activity by measuring bacterial growth rate at 64 ug/mL after 24 hrs in presence of ZnCl2 by broth microdilution method relative to control
[18] = test system: Proteus mirabilis; assay: Inhibition of IMP4 in Proteus mirabilis isolate 19 assessed as potentiation of meropenem-induced antibacterial activity by measuring meropenem MIC after 24 hrs by broth microdilution method (reference value: 320 ug/ml)
[19] = molecular target: T1, Metallo-beta-lactamase NDM-4 (Escherichia coli); assay: Inhibition of NDM4 in Escherichia coli isolate 3 assessed as potentiation of meropenem-induced bactericidal activity at 4 times MIC incubated for 24 hrs followed by replating on agar plates for 16 to 18 hrs and measured up to 24 hrs by time kill assay
[20] = test system: Enterobacter cloacae; assay: Effect on growth of Enterobacter cloacae isolate 5 after 24 hrs by broth microdilution assay; type: organism-based
[21] = test system: Klebsiella pneumoniae; assay: Inhibition of IMP4 in Klebsiella pneumoniae isolate 17 assessed as potentiation of meropenem-induced antibacterial activity by measuring meropenem MIC after 24 hrs by broth microdilution method (reference value: 32 ug/ml)
[22] = test system: Enterobacter cloacae; assay: Inhibition of NDM1 in Enterobacter cloacae isolate 4 assessed as potentiation of meropenem-induced antibacterial activity by measuring meropenem MIC after 24 hrs by broth microdilution assay (reference value: 640 ug/ml)
[23] = test system: Escherichia coli; assay: Inhibition of NDM-7 in Escherichia coli isolate 2 assessed as potentiation of meropenem-induced antibacterial activity by measuring meropenem MIC after 24 hrs by broth microdilution assay (reference value: 640 ug/ml)
[24] = test system: Enterobacter cloacae; assay: Inhibition of NDM1 in Enterobacter cloacae isolate 6 assessed as potentiation of meropenem-induced antibacterial activity by measuring meropenem MIC after 24 hrs by broth microdilution assay (reference value: 320 ug/ml)
[25] = test system: Klebsiella pneumoniae; assay: Inhibition of IMP4 in Klebsiella pneumoniae isolate 13 assessed as potentiation of meropenem-induced antibacterial activity by measuring meropenem MIC after 24 hrs by broth microdilution method (reference value: 320 ug/ml)
[26] = test system: Enterobacter cloacae; assay: Inhibition of NDM1 in Enterobacter cloacae isolate 5 assessed as potentiation of meropenem-induced antibacterial activity by measuring meropenem MIC after 24 hrs by broth microdilution assay (reference value: 640 ug/ml)
[27] = test system: Enterobacter cloacae; assay: Inhibition of IMP4 in Enterobacter cloacae isolate 16 assessed as potentiation of meropenem-induced antibacterial activity by measuring meropenem MIC after 24 hrs by broth microdilution method (reference value: 64 ug/ml)
[28] = test system: Klebsiella pneumoniae; assay: Effect on growth of Klebsiella pneumoniae isolate 10 after 24 hrs by broth microdilution method; type: organism-based
[29] = test system: Klebsiella pneumoniae; assay: Inhibition of IMP4 in Klebsiella pneumoniae isolate 10 assessed as potentiation of meropenem-induced antibacterial activity by measuring meropenem MIC after 24 hrs by broth microdilution method (reference value: 64 ug/ml)
[30] = test system: Escherichia coli; assay: Effect on growth of Escherichia coli isolate 9 after 24 hrs by broth microdilution assay; type: organism-based
[31] = test system: Citrobacter freundii; assay: Effect on growth of Citrobacter freundii isolate 7 after 24 hrs by broth microdilution assay; type: organism-based
[32] = test system: Enterobacter cloacae; assay: Effect on growth of Enterobacter cloacae isolate 15 after 24 hrs by broth microdilution method; type: organism-based
[33] = test system: Enterobacter cloacae; assay: Inhibition of IMP4 in Enterobacter cloacae isolate 15 assessed as potentiation of meropenem-induced antibacterial activity by measuring meropenem MIC after 24 hrs by broth microdilution method (reference value: 32 ug/ml)
[34] = test system: Escherichia coli; assay: Effect on growth of Escherichia coli isolate 14 after 24 hrs by broth microdilution method; type: organism-based
[35] = test system: Escherichia coli; assay: Inhibition of IMP4 in Escherichia coli isolate 11 assessed as potentiation of meropenem-induced antibacterial activity by measuring meropenem MIC after 24 hrs by broth microdilution method (reference value: 32 ug/ml)
[36] = test system: Escherichia coli; assay: Effect on growth of Escherichia coli isolate 8 after 24 hrs by broth microdilution assay; type: organism-based
[37] = test system: Escherichia coli; assay: Inhibition of NDM1 in Escherichia coli isolate 8 assessed as potentiation of meropenem-induced antibacterial activity by measuring meropenem MIC after 24 hrs by broth microdilution assay (reference value: 320 ug/ml)
[38] = test system: Klebsiella pneumoniae; assay: Effect on growth of Klebsiella pneumoniae isolate 17 after 24 hrs by broth microdilution method; type: organism-based
[39] = test system: Escherichia coli; assay: Inhibition of NDM1 in Escherichia coli isolate 1 assessed as potentiation of meropenem-induced antibacterial activity by measuring meropenem MIC after 24 hrs by broth microdilution assay (reference value: 1280 ug/ml)
[40] = test system: Escherichia coli; assay: Effect on growth of NDM4-positive Escherichia coli assessed as bacterial growth at 64 ug/mL after 24 hrs by broth microdilution method relative to control; type: organism-based
[41] = test system: Escherichia coli; assay: Effect on growth of NDM4-positive Escherichia coli assessed as bacterial growth at 0.03125 ug/mL after 24 hrs by broth microdilution method relative to control; type: functional
[42] = Inhibition of Stenotrophomonas maltophilia NDM1 expressed in Escherichia coli BL21 (DE3) expressing measured after 15 minutes at interval of 60 secs
[43] = molecular target: T1, Metallo-beta-lactamase NDM-4 (Escherichia coli); assay: Inhibition of NDM4 in Escherichia coli ATCC 25922 assessed as potentiation of meropenem-induced antibacterial activity by measuring zone of inhibition by agar disk diffusion method
[44] = test system: Escherichia coli ATCC 25922; assay: Inhibition of IMP-4 in Escherichia coli ATCC 25922 assessed as potentiation of meropenem-induced antibacterial activity by measuring zone of inhibition by agar disk diffusion method

`O=C(O)CN1CCN(CC(=O)O)CCN(CC(=O)O)CC1` showed an MIC [1] of 16 µg/mL (≈ 52.8 µM), an MIC [2] of 1 µg/mL and an MIC [3] of 16 µg/mL (≈ 52.8 µM). The MIC [4] was 16 µg/mL (≈ 52.8 µM), the MIC [5] was 16 µg/mL (≈ 52.8 µM) and the MIC [6] was 16 µg/mL (≈ 52.8 µM). It also gave an MIC [7] of 16 µg/mL (≈ 52.8 µM), an MIC [8] of 4 µg/mL and an MIC [9] of 16 µg/mL (≈ 52.8 µM). It also gave an MIC [10] of 0.25 µg/mL, an MIC [11] of 16 µg/mL (≈ 52.8 µM) and an MIC [12] of 2 µg/mL. For the same molecule, the MIC [13] was 16 µg/mL (≈ 52.8 µM), the MIC [14] was 16 µg/mL (≈ 52.8 µM) and the MIC [15] was 16 µg/mL (≈ 52.8 µM). For the same molecule, the inhibition [16] was “Active”, the inhibition [17] was 81% and the MIC [18] was 4 µg/mL. For the same molecule, the inhibition [19] was “Active”, the MIC [20] was 16 µg/mL (≈ 52.8 µM) and the MIC [21] was 4 µg/mL. For the same molecule, the MIC [22] was 0.125 µg/mL, the MIC [23] was 0.25 µg/mL and the MIC [24] was 0.0312 µg/mL. It also gave an MIC [25] of 4 µg/mL, an MIC [26] of 0.25 µg/mL and an MIC [27] of 2 µg/mL. It also gave an MIC [28] of 16 µg/mL (≈ 52.8 µM), an MIC [29] of 4 µg/mL and an MIC [30] of 16 µg/mL (≈ 52.8 µM). For the same molecule, the MIC [31] was 16 µg/mL (≈ 52.8 µM), the MIC [32] was 16 µg/mL (≈ 52.8 µM) and the MIC [33] was 1 µg/mL. For the same molecule, the MIC [34] was 16 µg/mL (≈ 52.8 µM), the MIC [35] was 1 µg/mL and the MIC [36] was 16 µg/mL (≈ 52.8 µM). For the same molecule, the MIC [37] was 0.125 µg/mL, the MIC [38] was 16 µg/mL (≈ 52.8 µM) and the MIC [39] was 0.0312 µg/mL. The Activity [40] was 95%.
With `C[C@@H](O)[C@H]1C(=O)N2C(C(=O)O)=C(S[C@@H]3CN[C@H](C(=O)N(C)C)C3)[C@H](C)[C@H]12` [MEROPENEM] the Activity [41] was 95%.
Work on `O=C(O)CN(CCN(CC(=O)O)CC(=O)O)CC(=O)O` [EDETIC ACID] yielded an IC50 [42] of 8.47 µM, an inhibition zone (IZ) [43] of 18.2 mm and an inhibition zone (IZ) [44] of 13.9 mm.
